# Experimental data taken from US9328083B2, “2-aminated methylene or 2-esterified methylene tanshinone derivatives, and preparation method and application thereof” (HANGZHOU BENSHENG PHARMACEUTICAL CO., LTD., priority 2011, dated 2016).
# Assays:
# [1] = test system: H9 (acute lymphoblastic leukemia, ALL); test: MTT growth inhibition of leukemia cells, 72 h; type: cell-based, human; settings: Homo sapiens, H9, 72 h; for IC50: read-out: IC50; for IC90: read-out: IC90
# Source text: (§1) Leukemia cell lines: leukemia cell lines: K562/adr (drug-resistant, chronic myeloid leukemia, CML), NB4 (acute promyelocytic leukemia, AML), Kasumi-1 (acute myeloid leukemia M2 type, AML-M2), and Jurkat (acute lymphoblastic leukemia, ALL), all of which are donated by Cancer Research Institute of Zhejiang University, China; and H9 (acute lymphoblastic leukemia, ALL), which is purchased from China Center for Type Culture Collection (CCTCC).
# (§2) The standard sample of tanshinone I (TA) and the 2-aminated methylene or 2-esterified methylene tanshinone I derivatives of the present invention are sufficiently dissolved with dimethylsulfoxide to produce a stock solution of 10 mg/mL, which is refrigerated at 4° C. and stored in dark, and is diluted with a cell culture medium to the desired concentration prior to experimentation.
# (§3) Obtaining 6000 well-growing leukemia cells and inoculating them into wells of a 96-well cell culture plate. The culture medium is the RPMI-1640 cell culture medium containing 10% fetal bovine serum. After adding on the second day the 2-aminated methylene or 2-esterified methylene tanshinone I derivatives of different concentrations and mixing uniformly, placing the plate in a carbon dioxide cell incubator (5% CO2) at 37° C. and incubated for 72 hours. Then the viable cell concentration is determined by MTT method.
# [2] = test system: Jurkat (acute lymphoblastic leukemia, ALL); test: MTT growth inhibition of leukemia cells, 72 h; type: cell-based, human; settings: Homo sapiens, 72 h; for IC50: read-out: IC50; for IC90: read-out: IC90
# Source text: as §1, §2, §3
# [3] = test system: K562/adr (drug-resistant, chronic myeloid leukemia, CML); test: MTT growth inhibition of leukemia cells, 72 h; type: cell-based, human; settings: Homo sapiens, K562/Adr; for IC50: read-out: IC50; for IC90: read-out: IC90
# Source text: as §1, §2, §3
# [4] = test system: Kasumi-1 (acute myeloid leukemia M2 type, AML-M2); test: MTT growth inhibition of leukemia cells, 72 h; type: cell-based, human; settings: Homo sapiens, Kasumi-1, 72 h; for IC50: read-out: IC50; for IC90: read-out: IC90
# Source text: as §1, §2, §3
# [5] = test system: NB4 (acute promyelocytic leukemia, AML); test: MTT growth inhibition of leukemia cells, 72 h; type: cell-based, human; settings: Homo sapiens, NB4, 72 h; for IC50: read-out: IC50; for IC90: read-out: IC90
# Source text: as §1, §2, §3
# [6] = test system: RPMI8226 (multiple myeloma); test: MTT growth inhibition of multiple myeloma cells, 72 h; type: cell-based, human; settings: Homo sapiens, RPMI 8226, 72 h; for IC50: read-out: IC50; for IC90: read-out: IC90
# Procedure: Myeloma cell lines: RPMI8226 (multiple myeloma), purchased from Fuxiang Bio-tech Co. Ltd., Shanghai, China.
# as §2
# as §3, with “myeloma” for “leukemia”, “cells as above” for “cells”, “1640” for “RPMI-1640”, “adding” for “adding on the second day”
# A549 (human lung cancer) = test: MTT growth inhibition of human solid tumor cells, 72 h; type: cell-based; settings: Homo sapiens, A549, 72 h; for IC50: read-out: IC50; for IC90: read-out: IC90
# Procedure: (§4) Hep-2 (laryngeal carcinoma), A549 (human lung cancer), CaES-17 (esophageal cancer cell), PC-3 (prostate cancer), CNE (nasopharyngeal carcinoma cell), and SK-OV-3 (ovarian cancer cell), all of which are purchased from China Center For Type Culture Collection; RKO (human colon adenocarcinoma cell), MGC 803 (human gastric cancer cell), MG63 (osteosarcoma) and U87 MG (malignant glioma cell), all of which are purchased from Fuxiang Bio-tech Co. Ltd., Shanghai, China; PANC-1 (pancreatic cancer), Hep G2 (human liver cancer cell), Becap37 (human breast cancer cell) and Hela (human cervical cancer cell), all of which are donated by Cancer Research Institute of Zhejiang University, China.
# as §2
# (§5) Obtaining 4000 well-growing human solid tumor cells and inoculating them into wells of a 96-well cell culture plate. The culture medium is DMEM High Glucose cell culture medium containing 10% fetal bovine serum. The plate is placed in a carbon dioxide cell incubator (5% CO2) at 37° C. and incubated for 24 hours. After adding the 2-aminated methylene or 2-esterified methylene tanshinone I derivatives of different concentrations and mixing uniformly, the plate is placed in a carbon dioxide cell incubator (5% CO2) at 37° C. and incubated for 72 hours. Then the viable cell concentration is determined by the MTT method.
# [7] = test system: Becap37 (human breast cancer cell); test: as above; type: cell-based; settings: Homo sapiens, Becap-37, 72 h; for IC50: read-out: IC50; for IC90: read-out: IC90
# Procedure: as §4, §2, §5
# [8] = test system: CNE (nasopharyngeal carcinoma cell); test: as above; type: cell-based; settings: Homo sapiens; for IC50: read-out: IC50; for IC90: read-out: IC90
# Procedure: as §4, §2, §5
# [9] = test system: CaES-17 (esophageal cancer cell); test: as above; type: cell-based; settings: Homo sapiens, CaEs17, CaEs-17, 72 h; for IC50: read-out: IC50; for IC90: read-out: IC90
# Procedure: as §4, §2, §5
# [10] = test system: Hela (human cervical cancer cell); test: as above; type: cell-based; settings: Homo sapiens, HeLa, 72 h; for IC50: read-out: IC50; for IC90: read-out: IC90
# Procedure: as §4, §2, §5
# [11] = test system: Hep G2 (human liver cancer cell); test: as above; type: cell-based; settings: Homo sapiens, HepG2, Hep G2, 72 h; for IC50: read-out: IC50; for IC90: read-out: IC90
# Procedure: as §4, §2, §5
# [12] = test system: Hep-2 (laryngeal carcinoma); test: as above; type: cell-based; settings: Homo sapiens, HEp-2, 72 h; for IC50: read-out: IC50; for IC90: read-out: IC90
# Procedure: as §4, §2, §5
# MG63 (osteosarcoma) = test: as above; type: cell-based; settings: Homo sapiens, MG-63, 72 h; for IC50: read-out: IC50; for IC90: read-out: IC90
# Procedure: as §4, §2, §5
# [13] = test system: MGC 803 (human gastric cancer cell); test: as above; type: cell-based; settings: Homo sapiens, MGC-803, 72 h; for IC50: read-out: IC50; for IC90: read-out: IC90
# Procedure: as §4, §2, §5
# [14] = test system: PANC-1 (pancreatic cancer); test: as above; type: cell-based; settings: Homo sapiens, PANC-1, 72 h; for IC50: read-out: IC50; for IC90: read-out: IC90
# Procedure: as §4, §2, §5
# PC-3 (prostate cancer) = test: as above; type: cell-based; settings: Homo sapiens, PC-3, 72 h; for IC50: read-out: IC50; for IC90: read-out: IC90
# Procedure: as §4, §2, §5
# [15] = test system: RKO (human colon adenocarcinoma cell); test: as above; type: cell-based; settings: Homo sapiens; for IC50: read-out: IC50; for IC90: read-out: IC90
# Procedure: as §4, §2, §5
# [16] = test system: SK-OV-3 (ovarian cancer cell); test: as above; type: cell-based; settings: Homo sapiens, SK-OV-3, 72 h; for IC50: read-out: IC50; for IC90: read-out: IC90
# Procedure: as §4, §2, §5
# [17] = test system: U87 MG (malignant glioma cell); test: as above; type: cell-based; settings: Homo sapiens, U-87 MG, U87-MG, 72 h; for IC50: read-out: IC50; for IC90: read-out: IC90
# Procedure: as §4, §2, §5
IC50 [1] [µg/mL],IC90 [1] [µg/mL],IC50 [2] [µg/mL],IC90 [2] [µg/mL],IC50 [3] [µg/mL],IC90 [3] [µg/mL],IC50 [4] [µg/mL],IC90 [4] [µg/mL],IC50 [5] [µg/mL],IC90 [5] [µg/mL],IC50 [6] [µg/mL],IC90 [6] [µg/mL],IC50 (A549 (human lung cancer)) [µg/mL],IC90 (A549 (human lung cancer)) [µg/mL],IC50 [7] [µg/mL],IC90 [7] [µg/mL],IC50 [8] [µg/mL],IC90 [8] [µg/mL],IC50 [9] [µg/mL],IC90 [9] [µg/mL],SMILES,further results
0.25,1.49,0.96,1.86,0.8,1.8,0.26,1.57,0.19,0.49,0.45,1.78,1.79,6.05,0.85,1.81,1.39,2.91,1.09,1.86,COC(=O)/C=C/C(=O)OCCN(C)Cc1oc2c(c1C)C(=O)C(=O)c1c-2ccc2c(C)cccc12 [BS-TA-74],IC50 [10]: 1.15 µg/mL; IC90 [10]: 3.59 µg/mL; IC50 [11]: 1.35 µg/mL; IC90 [11]: 5.26 µg/mL; IC50 [12]: 1.28 µg/mL; IC90 [12]: 3.67 µg/mL; IC50 (MG63 (osteosarcoma)): 1.02 µg/mL; IC90 (MG63 (osteosarcoma)): 3.26 µg/mL; IC50 [13]: 0.8 µg/mL; IC90 [13]: 3.87 µg/mL; IC50 [14]: 0.87 µg/mL; IC90 [14]: 11.1 µg/mL; IC50 (PC-3 (prostate cancer)): 1.71 µg/mL; IC90 (PC-3 (prostate cancer)): 8.19 µg/mL; IC50 [15]: 0.28 µg/mL; IC90 [15]: 2.88 µg/mL; IC50 [16]: 3.96 µg/mL; IC90 [16]: 7.99 µg/mL; IC50 [17]: 0.86 µg/mL; IC90 [17]: 1.83 µg/mL
3.09,10.4,3,9.27,2.33,6.24,1.75,3.91,0.99,3.97,3.39,7.85,6.23,> 16,4.74,10.8,4.1,45,6.36,12.7,Cc1c(COC(=O)c2ccnc(Cl)c2)oc2c1C(=O)C(=O)c1c-2ccc2c(C)cccc12 [BS-TA-A01],IC50 [10]: 4.5 µg/mL; IC90 [10]: 14.9 µg/mL; IC50 [11]: 4.82 µg/mL; IC90 [11]: 16 µg/mL; IC50 [12]: 3.96 µg/mL; IC90 [12]: 19.1 µg/mL; IC50 (MG63 (osteosarcoma)): 2.87 µg/mL; IC90 (MG63 (osteosarcoma)): 14 µg/mL; IC50 [13]: 5.38 µg/mL; IC90 [13]: 16 µg/mL; IC50 [14]: 3.31 µg/mL; IC90 [14]: 12 µg/mL; IC50 (PC-3 (prostate cancer)): 5.32 µg/mL; IC90 (PC-3 (prostate cancer)): 12.6 µg/mL; IC50 [15]: 1.46 µg/mL; IC90 [15]: 13.4 µg/mL; IC50 [16]: > 16 µg/mL; IC90 [16]: > 16 µg/mL; IC50 [17]: 5.71 µg/mL; IC90 [17]: 14.2 µg/mL
